From US6482804B1, “Compositions and methods for delivery of genetic material” (Wyeth, priority 1997, dated 2002)

Assay: Scanning and transmission electron microscopy (SEM/TEM) of surfactant:DNA complexes
Format: physicochemical
Conditions: aqueous formulations
Procedure: Scanning electron microscopy (SEM) and transmission electron microscopy (TEM) were employed to visualize the resulting complexes formed by the benzylammonium-containing surfactant and polynucleic acid compositions of this invention.
Each formulation containing 8.71% sucrose w/v and 5 mM phosphate buffer at pH6.7±0.5.
ii. […] However, upon addition of DNA, vesicular complexes are formed, when observed by SEM.
iii. […] Similar particle distribution was found at both concentrations of DNA, but in larger numbers with higher DNA concentrations. Larger particles in higher DNA concentrations appear to have derived from the fusion of several 50 nm particles. Formation of larger particles was dependent on the concentration of DNA in the formulation. These particles were visualized by shadow casting in SEM analysis using carbon, and were visible by short (10 second) exposure to the contrasting agent uranyl acetate in TEM analysis. The TEMs show membranous structures typical of liposomes described in literature.
As controls, SEM of DNA alone and benzalkonium chloride alone in aqueous solutions were performed. Vesicular structures are found only when aqueous solutions of DNA and benzalkonium chloride are mixed. TEMs show structures that are vesicular and some are multilamellar. Membranous structures found in these TEMs are consistent with the formation of lamellar vesicular complexes in liposomes.

benzalkonium chloride
structures seen by SEM/TEM: does not form vesicular complexes
